Data: publication PMC9516332 (Frontiers in Oncology, 2022)
Like-named read-outs stand apart in the source and are kept apart here.

Assays:
134 cancer cell lines = experiment: Cell viability assay (ATPlite, 72 hours), IC50 on cancer cell line panel
[1] = biological target: panel of 255 wild-type kinases (Homo sapiens, UniProt P29317); experiment: Kinase panel profiling at 1 µmol/L (MSA or IMAP), percentage inhibition; format: biochemical; details: kinase EPHA2; 1 µmol/L single concentration; read-out: %-inhibition at 1 µmol/L, EPHA2
[2] = biological target: panel of 255 wild-type kinases (Homo sapiens, UniProt Q9Y6M4); experiment: as above; format: biochemical; details: kinase CK1γ3; 1 µmol/L single concentration; read-out: %-inhibition at 1 µmol/L, CK1γ3

With C[C@H]1Oc2cc(cnc2N)-c2c(nn(C)c2C#N)CN(C)C(=O)c2ccc(F)cc21 [lorlatinib] the IC50 (134 cancer cell lines; Homo sapiens, MCF7, read-out: IC50 in cell proliferation assay) was 17 µM, the IC50 (134 cancer cell lines; Homo sapiens, MDA-MB-231, read-out: IC50 in cell proliferation assay) was > 31.6 µM and the IC50 (134 cancer cell lines; Homo sapiens, MDA-MB-453, read-out: IC50 in cell proliferation assay) was > 31.6 µM. For the same compound, the IC50 (134 cancer cell lines; Homo sapiens, MDA-MB-468, read-out: IC50 in cell proliferation assay) was > 31.6 µM, the IC50 (134 cancer cell lines; Homo sapiens, MG-63, read-out: IC50 in cell proliferation assay) was 8.74 µM and the IC50 (134 cancer cell lines; Homo sapiens, MIA PaCa-2, read-out: IC50 in cell proliferation assay) was > 31.6 µM. The IC50 (134 cancer cell lines; Homo sapiens, MKN-45, read-out: IC50 in cell proliferation assay) was > 31.6 µM, the IC50 (134 cancer cell lines; Homo sapiens, MOLM-13, read-out: IC50 in cell proliferation assay) was 21.1 µM and the IC50 (134 cancer cell lines; Homo sapiens, MOLT-4, read-out: IC50 in cell proliferation assay) was 6.72 µM. The IC50 (134 cancer cell lines; Homo sapiens, MV4-11, read-out: IC50 in cell proliferation assay) was 15.6 µM, the IC50 (134 cancer cell lines; Homo sapiens, MeWo, read-out: IC50 in cell proliferation assay) was > 31.6 µM and the IC50 (134 cancer cell lines; Homo sapiens, NCCIT, read-out: IC50 in cell proliferation assay) was > 31.6 µM. The IC50 (134 cancer cell lines; Homo sapiens, NCI-H82, read-out: IC50 in cell proliferation assay) was 6.06 µM, the IC50 (134 cancer cell lines; Homo sapiens, NCI-H460, read-out: IC50 in cell proliferation assay) was 18.4 µM and the IC50 (134 cancer cell lines; Homo sapiens, NCI-H661, read-out: IC50 in cell proliferation assay) was 6.73 µM. The IC50 (134 cancer cell lines; Homo sapiens, NCI-H716, read-out: IC50 in cell proliferation assay) was 9.52 µM, the IC50 (134 cancer cell lines; Homo sapiens, NCI-H1650, read-out: IC50 in cell proliferation assay) was 23.9 µM and the IC50 (134 cancer cell lines; Homo sapiens, NCI-H1975, read-out: IC50 in cell proliferation assay) was 9.89 µM. The IC50 (134 cancer cell lines; Homo sapiens, NCI-H2228, read-out: IC50 in cell proliferation assay) was 0.000918 µM, the IC50 (134 cancer cell lines; Homo sapiens, OVCAR-3, read-out: IC50 in cell proliferation assay) was > 31.6 µM and the IC50 (134 cancer cell lines; Homo sapiens, PFSK-1, read-out: IC50 in cell proliferation assay) was 7.69 µM. For the same compound, the IC50 (134 cancer cell lines; Homo sapiens, RL95-2, read-out: IC50 in cell proliferation assay) was 0.035 µM, the IC50 (134 cancer cell lines; Homo sapiens, RPMI-7951, read-out: IC50 in cell proliferation assay) was 0.818 µM and the IC50 (134 cancer cell lines; Homo sapiens, RS4-11, read-out: IC50 in cell proliferation assay) was 11.2 µM. The IC50 (134 cancer cell lines; Homo sapiens, Rec1, read-out: IC50 in cell proliferation assay) was 8.26 µM, the IC50 (134 cancer cell lines; Homo sapiens, SHP77, read-out: IC50 in cell proliferation assay) was > 31.6 µM and the IC50 (134 cancer cell lines; Homo sapiens, SK-BR-3, read-out: IC50 in cell proliferation assay) was > 31.6 µM. For the same compound, the IC50 (134 cancer cell lines; Homo sapiens, SK-N-AS, read-out: IC50 in cell proliferation assay) was > 31.6 µM, the IC50 (134 cancer cell lines; Homo sapiens, SK-N-FI, read-out: IC50 in cell proliferation assay) was 21.5 µM and the IC50 (134 cancer cell lines; Homo sapiens, SK-N-MC, read-out: IC50 in cell proliferation assay) was 6.17 µM. For the same compound, the IC50 (134 cancer cell lines; Homo sapiens, SK-N-SH, read-out: IC50 in cell proliferation assay) was 5.69 µM, the IC50 (134 cancer cell lines; Homo sapiens, SNU-5, read-out: IC50 in cell proliferation assay) was > 31.6 µM and the IC50 (134 cancer cell lines; Homo sapiens, SNU-16, read-out: IC50 in cell proliferation assay) was 31.5 µM. For the same compound, the IC50 (134 cancer cell lines; Homo sapiens, SNU-C2B, read-out: IC50 in cell proliferation assay) was > 31.6 µM, the IC50 (134 cancer cell lines; Homo sapiens, SU-DHL-1, read-out: IC50 in cell proliferation assay) was 0.008 µM and the IC50 (134 cancer cell lines; Homo sapiens, SU-DHL-6, read-out: IC50 in cell proliferation assay) was 24.1 µM. The IC50 (134 cancer cell lines; Homo sapiens, SUP-T1, read-out: IC50 in cell proliferation assay) was 23.2 µM, the IC50 (134 cancer cell lines; Homo sapiens, SW48, read-out: IC50 in cell proliferation assay) was 8.62 µM and the IC50 (134 cancer cell lines; Homo sapiens, SW480, read-out: IC50 in cell proliferation assay) was > 31.6 µM. The IC50 (134 cancer cell lines; Homo sapiens, SW626, read-out: IC50 in cell proliferation assay) was 8.56 µM, the IC50 (134 cancer cell lines; Homo sapiens, SW780, read-out: IC50 in cell proliferation assay) was 16 µM and the IC50 (134 cancer cell lines; Homo sapiens, SW837, read-out: IC50 in cell proliferation assay) was > 31.6 µM. For the same compound, the IC50 (134 cancer cell lines; Homo sapiens, SW872, read-out: IC50 in cell proliferation assay) was 6.65 µM, the IC50 (134 cancer cell lines; Homo sapiens, SW900, read-out: IC50 in cell proliferation assay) was 15.1 µM and the IC50 (134 cancer cell lines; Homo sapiens, SW948, read-out: IC50 in cell proliferation assay) was 17 µM. It also gave an IC50 (134 cancer cell lines; Homo sapiens, SW982, read-out: IC50 in cell proliferation assay) of 0.052 µM, an IC50 (134 cancer cell lines; Homo sapiens, SW-620, read-out: IC50 in cell proliferation assay) of 17 µM and an IC50 (134 cancer cell lines; Homo sapiens, T98G, read-out: IC50 in cell proliferation assay) of 11.4 µM. For the same compound, the IC50 (134 cancer cell lines; Homo sapiens, TCC-SUP, read-out: IC50 in cell proliferation assay) was > 31.6 µM, the IC50 (134 cancer cell lines; Homo sapiens, THP-1, read-out: IC50 in cell proliferation assay) was > 31.6 µM and the IC50 (134 cancer cell lines; Homo sapiens, U2OS, read-out: IC50 in cell proliferation assay) was 8.64 µM. For the same compound, the IC50 (134 cancer cell lines; Homo sapiens, U-87 MG, read-out: IC50 in cell proliferation assay) was > 31.6 µM, the IC50 (134 cancer cell lines; Homo sapiens, U-118-MG, read-out: IC50 in cell proliferation assay) was > 31.6 µM and the IC50 (134 cancer cell lines; Homo sapiens, UMUC3, read-out: IC50 in cell proliferation assay) was > 31.6 µM. For the same compound, the IC50 (134 cancer cell lines; Hs766T, read-out: IC50 in cell proliferation assay) was > 31.6 µM, the IC50 (134 cancer cell lines; L-82, read-out: IC50 in cell proliferation assay) was 0.00122 µM and the IC50 (134 cancer cell lines; Rh30, read-out: IC50 in cell proliferation assay) was 9.22 µM. For the same compound, the inhibition at 1 µM [1] was 45% and the inhibition at 1 µM [2] was -1%.
